Results from US11154563B2, “Immunoproteasome inhibitors” (Principia Biopharma Inc., priority 2017, dated 2021).

Tests used:
Assay type in all cases: biochemical
[1] = molecular target: immunoproteasome LMP7/B5i subunit (Homo sapiens, UniProt P20618+P28062); test: Caliper-based proteasome enzymatic activity assay, LMP7; conditions: human recombinant immunoproteasome 0.3 nM, FAM-peptide substrate 1 μM, 3 h at rt
In short: (§1)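 Recombinant human immunoproteasome or constitutive proteasome (0.3 nM) with 1 μM FAM-peptide in 20 mM Hepes pH 7.4, 0.015% SDS, 0.01% BSA; LMP7/β5c ran 3 h at rt and were stopped with 5 uM carfilzomib, LMP2 ran 2 h and was stopped with 6.7 uM ixazomib. Cleaved product quantified by microfluidic separation; IC50 from percent inhibition.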

[2] = molecular target: constitutive proteasome β5c unit (Homo sapiens, UniProt P20618+P28074); test: Caliper-based proteasome enzymatic activity assay, β5c; conditions: human recombinant constitutive proteasome 0.3 nM, FAM-peptide substrate 1 μM, 3 h at rt; read-out: β5c subunit IC50
In short: as §1

[3] = molecular target: immunoproteasome LPM2/β1i subunit (Homo sapiens, UniProt P28065+P40306); test: Caliper-based proteasome enzymatic activity assay, LMP2; conditions: human recombinant immunoproteasome 0.3 nM, FAM-peptide substrate 1 μM, 2 h at rt
Protocol: A Caliper-based proteasome assay (Caliper Life Sciences, Hopkinton, Mass.) was used to measure inhibition of the immunoproteasome LMP7/B5i subunit, the immunoproteasome LPM2/β1i subunit, and the constitutive proteasome β5c unit for a compound of Formula (I). For LMP7 and β5c, serial dilutions of test compounds were incubated with either human recombinant immunoprotcasome or constitutive proteasome (0.3 nM enzyme) and a carboxyfluorescein (FAM)-labeled peptide substrate FAM-TYETFKSIMKKSPF-NH2 (1 μM) at it for 3 h. The reaction was then terminated with a buffer containing the known proteasome inhibitor carfilzomib at a concentration of 5 uM. For LMP2, serial dilutions of test compounds were incubated with human recombinant immunoproteasome proteasome (0.3 nM enzyme) and a carboxyfluorescein (FAM)-labeled peptide substrate FAM-[…]-NH2 (1 μM) at rt for 2 h. The reaction was then terminated with a buffer containing the known proteasome inhibitor ixazomib at a concentration of 6.7 uM. The reaction buffer was 20 mM Hepes pH 7.4, 0.01% bovine serum albumin, 0.015% SDS, 0.5 mM EDTA, 1%0/DMSO. The peptide cleavage reaction product was quantified on a Caliper LabChip 3000. Percent inhibition was calculated for each compound dilution and the concentration that produced 50% inhibition was calculated. This value is presented as the IC50.

Structure (SMILES): C=CC(=O)N1CCCC[C@@H]1COC(=O)N[C@@H](Cc1ccccc1)B(O)O [Example 8, ((R)-1-(((((R)-1-acryloylpiperidin-2-yl)methoxy)carbonyl)amino)-2-phenylethyl)boronic acid]
- IC50 [1]: > 5000 nM
- IC50 [2]: > 5000 nM
- IC50 [3]: > 5000 nM

Structure (SMILES): CC(C)(C)/C=C(\C#N)C(=O)N1CCCC[C@H]1COC(=O)N[C@@H](Cc1ccccc1)B(O)O [Example 9, ((R)-1-(((((S)-1-((E)-2-cyano-4,4-dimethylpent-2-enoyl)piperidin-2-yl)methoxy)carbonyl)amino)-2-phenylethyl)boronic acid]
- IC50 [1]: 14 nM
- IC50 [2]: > 5000 nM
- IC50 [3]: 3650 nM

Structure (SMILES): C=CC(=O)N1CCCC[C@H]1COC(=O)N[C@@H](Cc1ccccc1)B(O)O [Example 11, ((R)-1-(((((S)-1-acryloylpiperidin-2-yl)methoxy)carbonyl)amino)-2-phenylethyl)boronic acid]
- IC50 [1]: 957 nM
- IC50 [2]: > 5000 nM
- IC50 [3]: 3240 nM

Structure (SMILES): CC(C)C=C(C#N)C(=O)N1CCC[C@H]1COC(=O)N[C@@H](Cc1ccccc1)B(O)O [Example 12, ((R)-1-(((((S)-1-(2-cyano-4-methylpent-2-enoyl)pyrrolidin-2-yl)methoxy)carbonyl)amino)-2-phenylethyl)boronic acid]
- IC50 [1]: 39 nM
- IC50 [2]: > 5000 nM
- IC50 [3]: > 5000 nM

Structure (SMILES): CC(C)C=C(C#N)C(=O)N1CCCC[C@H]1COC(=O)N[C@@H](Cc1ccccc1)B(O)O [Example 13, ((R)-1-(((((S)-1 (2-cyano-4-methylpent-2-enoyl)piperidin-2-yl)methoxy)carbonyl)amino)-2-phenylethyl)boronic acid]
- IC50 [1]: 38 nM
- IC50 [2]: > 5000 nM
- IC50 [3]: 4040 nM

Structure (SMILES): C=CC(=O)N1CCC[C@@H]1COC(=O)N[C@@H](Cc1ccccc1)B(O)O [Example 14, ((R)-1-(((((R)-1-acryloylpyrrolidin-2-yl)methoxy)carbonyl)amino)-2-phenylethyl)boronic acid]
- IC50 [1]: 123 nM
- IC50 [2]: 4850 nM
- IC50 [3]: > 5000 nM

Structure (SMILES): CC(C)C=C(C#N)C(=O)N1CCC[C@@H]1COC(=O)N[C@@H](Cc1coc2ccccc12)B(O)O [Example 16, ((R)-2-(benzofuran-3-yl)-1-(((((R)-1-(2-cyano-4-methylpent-2-enoyl)pyrrolidin-2-yl)methoxy)carbonyl)amino)ethyl)boronic acid]
- IC50 [1]: 2.5 nM
- IC50 [2]: 444 nM
- IC50 [3]: > 5000 nM

Structure (SMILES): CC(C)(C=C(C#N)C(=O)N1CCC[C@@H]1COC(=O)N[C@@H](Cc1ccccc1)B(O)O)N1CCN(C2COC2)CC1 [Example 17, ((R)-1-(((((R)-1-(2-cyano-4-methyl-4-(4-(oxetan-3-yl)piperazin-1-yl)pent-2-enoyl)pyrrolidin-2-yl)methoxy)carbonyl)amino)-2-phenylethyl)boronic acid]
- IC50 [1]: 1.9 nM
- IC50 [2]: 2950 nM
- IC50 [3]: > 5000 nM

Structure (SMILES): Cc1ccc(C[C@H](NC(=O)OC[C@H]2CCCN2C(=O)C(C#N)=CC(C)(C)C)B(O)O)cc1 [Example 18, ((R)-1-(((((R)-1-(2-cyano-4,4-dimethylpent-2-enoyl)pyrrolidin-2-yl)methoxy)carbonyl)amino)-2-(p-tolyl)ethyl)boronic acid]
- IC50 [1]: 2 nM
- IC50 [2]: 1540 nM
- IC50 [3]: > 5000 nM

Structure (SMILES): C=CC(=O)N1CCC[C@@H]1COC(=O)N[C@@H](Cc1ccc(C)cc1)B(O)O [Example 19, ((R)-1-(((((R)-1-acryloylpyrrolidin-2-yl)methoxy)carbonyl)amino)-2-(p-tolyl)ethyl)boronic acid]
- IC50 [1]: 60 nM
- IC50 [2]: 3260 nM
- IC50 [3]: > 5000 nM

Structure (SMILES): CC(C)(C=C(C#N)C(=O)N1CCC[C@@H]1COC(=O)N[C@@H](Cc1ccccc1)B(O)O)N1CCCCC1 [Example 20, ((R)-1-(((((R)-1-(2-cyano-4-methyl-4-(piperidin-1l-yl)pent-2-enoyl)pyrrolidin-2-yl)methoxy)carbonyl)amino)-2-phenylethyl)boronic acid]
- IC50 [1]: 3.6 nM
- IC50 [2]: 4540 nM
- IC50 [3]: > 5000 nM

Structure (SMILES): CC(C)(C=C(C#N)C(=O)N1CCC[C@@H]1COC(=O)N[C@@H](Cc1ccccc1)B(O)O)N1CCC(F)(F)CC1 [Example 21, ((R)-1-(((((R)-1-(2-cyano-4-(4,4-difluoropiperidin-1-yl)-4-methylpent-2-enoyl)pyrrolidin-2-yl)methoxy)carbonyl)amino)-2-phenylethyl)boronic acid]
- IC50 [1]: 1.4 nM
- IC50 [2]: 1940 nM
- IC50 [3]: 4780 nM

Structure (SMILES): CC(C)(C=C(C#N)C(=O)N1CCC[C@]1(C)COC(=O)N[C@@H](Cc1ccc(F)cc1)B(O)O)N1CCC(F)(F)C1 [Example 120, ((R)-1-(((((R)-1-(2-cyano-4-(3,3-difluoropyrrolidin-1-yl)-4-methylpent-2-enoyl)-2-methylpyrrolidin-2-yl)methoxy)carbonyl)amino)-2-(4-fluorophenyl)ethyl)boronic acid]
- IC50 [1]: 530 nM
- IC50 [2]: > 5000 nM

Structure (SMILES): C=C(F)C(=O)N1CCC[C@]1(C)COC(=O)N[C@@H](Cc1ccc(F)cc1)B(O)O [Example 121, ((R)-1-(((((R)-1-(2-fluoroacryloyl)-2-methylpyrrolidin-2-yl)methoxy)carbonyl)amino)-2-(4-fluorophenyl)ethyl)boronic acid]
- IC50 [1]: 1.9 nM
- IC50 [2]: 1750 nM

Structure (SMILES): CC(C)(C=C(C#N)C(=O)N1CCCC[C@@H]1COC(=O)N[C@@H](Cc1ccc(C#N)cc1)B(O)O)N1CCC(F)(F)C1 [Example 122, ((R)-1-(((((R)-1-(2-cyano-4-(3,3-difluoropyrrolidin-1-yl)-4-methylpent-2-enoyl)piperidin-2-yl)methoxy)carbonyl)amino)-2-(4-cyanophenyl)ethyl)boronic acid]
- IC50 [1]: 1.5 nM
- IC50 [2]: 4180 nM

Structure (SMILES): CC(C)(C=C(C#N)C(=O)N1C[C@@H]2C[C@@H]2[C@@H]1COC(=O)N[C@@H](Cc1ccc(F)cc1)B(O)O)N1CCOCC1 [Example 123, ((R)-1-(((((1S,2R,5R)-3-(2-cyano-4-methyl-4-morpholinopent-2-enoyl)-3-azabicyclo[3.1.0]hexan-2-yl)methoxy)carbonyl)amino)-2-(4-fluorophenyl)ethyl)boronic acid]
- IC50 [1]: 550 nM
- IC50 [2]: > 5000 nM

Structure (SMILES): CC(C)(C=C(C#N)C(=O)N1CCCC[C@@H]1COC(=O)N[C@@H](Cc1ccc(S(C)(=O)=O)cc1)B(O)O)N1CCC(F)(F)C1 [Example 124, ((R)-1-(((((R)-1-(2-cyano-4-(3,3-difluoropyrrolidin-1-yl)-4-methylpent-2-enoyl)piperidin-2-yl)methoxy)carbonyl)amino)-2-(4-(methylsulfonyl)phenyl)ethyl)boronic acid]
- IC50 [1]: 2.2 nM
- IC50 [2]: 550 nM

Structure (SMILES): COC(=O)N1CCN(C(C)(C)C=C(C#N)C(=O)N2CCCC[C@@H]2COC(=O)N[C@@H](Cc2ccccc2)B(O)O)CC1 [Example 125, ((R)-1-(((((R)-1-(2-cyano-4-(4-(methoxycarbonyl)piperazin-1-yl)-4-methylpent-2-enoyl)piperidin-2-yl)methoxy)carbonyl)amino)-2-phenylethyl)boronic acid]
- IC50 [1]: 1.6 nM
- IC50 [2]: 2860 nM

Structure (SMILES): CC(C)(C=C(C#N)C(=O)N1CCCC[C@@H]1COC(=O)N[C@@H](Cc1ccccc1)B(O)O)N1CCN(C2COC2)CC1 [Example 126, ((R)-1-(((((R)-1-(2-cyano-4-methyl-4-(4-(oxetan-3-yl)piperazin-1-yl)pent-2-enoyl)piperidin-2-yl)methoxy)carbonyl)amino)-2-phenylethyl)boronic acid]
- IC50 [1]: 21 nM
- IC50 [2]: > 5000 nM

Structure (SMILES): CC(C)(C=C(C#N)C(=O)N1CCCC[C@@H]1COC(=O)N[C@@H](Cc1ccc(F)cc1)B(O)O)N1CCN(C2COC2)CC1 [Example 127, ((R)-1-(((((R)-1-(2-cyano-4-methyl-4-(4-(oxetan-3-yl)piperazin-1-yl)pent-2-enoyl)piperidin-2-yl)methoxy)carbonyl)amino)-2-(4-fluorophenyl)ethyl)boronic acid]
- IC50 [1]: 5 nM
- IC50 [2]: 900 nM

Structure (SMILES): CC(C)(C)/C=C(\C#N)C(=O)N1CCNC[C@@H]1COC(=O)N[C@@H](Cc1ccccc1)B(O)O [Example 128, ((R)-1-(((((R)-1-((E)-2-cyano-4,4-dimethylpent-2-enoyl)piperazin-2-yl)methoxy)carbonyl)amino)-2-phenylethyl)boronic acid]
- IC50 [1]: 2.3 nM
- IC50 [2]: 2730 nM

Structure (SMILES): CC(C)(C=C(C#N)C(=O)N1CCCC[C@]1(C)COC(=O)N[C@@H](Cc1ccccc1)B(O)O)N1CCC(F)(F)C1 [Example 129, ((R)-1-(((((R)-1-(2-cyano-4-(3,3-difluoropyrrolidin-1-yl)-4-methylpent-2-enoyl)-2-methylpiperidin-2-yl)methoxy)carbonyl)amino)-2-phenylethyl)boronic acid]
- IC50 [1]: 2 nM
- IC50 [2]: 1940 nM
